Data: US20250194596A1 (priority 2023, published 2025)
Structures can show the parent of a compound that is named as a salt. Where two headings read alike, the source gives them in different places.

Experiments:
CLas [1] = format: in vivo, Candidatus Liberibacter asianticum; details: injection into the tree trunks for one week
[2] = format: physicochemical; details: 10 mg/mL in water
CLas [3] = format: in vivo, Candidatus Liberibacter asianticum
[4] = on human beings and animals; cited from earlier work

Which results are given for `O=C(/C=C/c1ccc(O)c(O)c1)O[C@@H]1C[C@](O)(C(=O)O)C[C@@H](O)[C@H]1O` [chlorogenic acid]?
reduction of CLas content (CLas [1]): about 60%; appearance of solution [2]: turbid; CLas content reduced (CLas [3]; 0.5 mg/mL chlorogenic acid, mesophyll injection, 3 d): more than 60%; inhibitory effect on CLas (CLas [3]; 10 mg/mL, mesophyll injection, 3 d): equivalent to that of 5 mg/mL; antibacterial effect on CLas (CLas [3]; concentrations below 0.5 mg/mL, mesophyll injection, 3 d): not obvious; concentration achieving a significant inhibitory effect on CLas (CLas [3]; in vivo): not less than 5 mg/mL; reduction of CLas content (CLas [3]; injection into the mesophyll for 3 days): about 60%; minimum inhibitory concentration (MIC) of chlorogenic acid for CLas (CLas [3]; mesophyll injection of HLB-infected leaves, CLas content after 3 d): 500 µg/mL

With `CN(C)[C@@H]1C(O)=C(C(N)=O)C(=O)[C@@]2(O)C(O)=C3C(=O)c4c(O)cccc4[C@@](C)(O)[C@H]3[C@H](O)[C@@H]12` [oxytetracycline hydrochloride, reference compound] as the compound, how does the “reduction of CLas content” value (CLas [3]; 20 mg/mL, mesophyll injection, 3 d) read?
The value was “about 20%”.

With `CC1(C)S[C@@H]2[C@H](NC(=O)[C@H](N)c3ccccc3)C(=O)N2[C@H]1C(=O)O` [ampicillin, reference compound] as the compound, how does the CLas content reduced (CLas [3]; 12 mg/mL, mesophyll injection, 3 d) read?
The CLas content reduced was “more than 80%”.

Which “toxic or side effects” value [4] does the source give for rhamnolipid here?
The value was “no toxic or side effects”.
